Laboratory results from US8455688B2, “HDAC inhibitors” (Lixte Biotechnology, Inc., priority 2007, dated 2013).
“Also recorded” adds a separate entry of the source.

Experiments:
HT-29 Colon = assay: CellTiter-Glo proliferation assay, HT-29; type: cell-based; conditions: Homo sapiens, 72 hr incubation, read-out: IC50 (50% inhibition of proliferation)
Excerpt: (§1) MDA-MB-231, HT-29, NCI-H460, NCI-H522, NCI-H69, GXF-209, HepG2, OVAR-3, PANC-1, DU-145, LNCAP, HL-60, K-562, and MOLT-4 cell lines were either obtained from the American Type Culture Collection (ATCC; Manassas, Va.), or from the National Cancer Institute (NCl; Frederick, Md.). RPM-1640 media, L-glutamine dipeptide (HyQ SG-200), and HEPES were obtained from Hyclone (Logan, Utah). Fetal bovine serum (FBS) was obtained from Sigma-Aldrich, (St. Louis, Mo.). DMSO was purchases from Fisher Chemicals (Fair Lawn, N.J.). The CellTiter-Glo Luminescent Cell Viability Assay reagent was obtained from Promega Corporation (Madison, Wis.). All tissue culture plasticware was obtained from Corning Incorporated (New York, N.Y.). Compound 100 and Compound 102 were provided by Lixte Biotechnology Holdings, Inc. (East Setauket, N.Y.). All cell lines were routinely cultured twice weekly in RPMI-1640 medium supplemented with 2 mM L-glutamine dipeptide, 10 mM HEPES, and 10% FBS. The adherent cell lines MDA-MB-231, HT-29, NCI-H460, NCI-H522, GXF-209, HepG2, OVAR-3, PANC-1, DU-145, and LNCAP cells were each seeded into two 96-well plates at 2,500 cells per well in a total volume of 50 uL and incubated in a 37 C humidified 5% CO2 cell culture incubator overnight. […] Luminescence was then recorded using the PerkinElmer Microbeta scintillation and luminescence counter (Trilux).

NCI-H460 Lung large cell = assay: CellTiter-Glo proliferation assay, NCI-H460; type: cell-based; conditions: Homo sapiens, 72 hr incubation, read-out: IC50 (50% inhibition of proliferation)
Excerpt: as §1

DU-145 Prostate = assay: CellTiter-Glo proliferation assay, DU-145; type: cell-based; conditions: Homo sapiens, 72 hr incubation, read-out: IC50 (50% inhibition of proliferation)
Excerpt: as §1

human cancer cell lines = assay: Proliferation of multiple human cancer cell lines (panel summary); type: cell-based; conditions: panel of Table 2
Excerpt: as §1

MDA-MB-231 Breast = assay: CellTiter-Glo proliferation assay, MDA-MB-231; type: cell-based; conditions: Homo sapiens, 72 hr incubation, read-out: IC50 (50% inhibition of proliferation)
Excerpt: as §1

OVCAR-3 Ovary adenoca = assay: CellTiter-Glo proliferation assay, OVCAR-3; type: cell-based; conditions: Homo sapiens, 72 hr incubation, read-out: IC50 (50% inhibition of proliferation)
Excerpt: as §1

LNCAP Prostate = assay: CellTiter-Glo proliferation assay, LNCAP; type: cell-based; conditions: Homo sapiens, 72 hr incubation, read-out: IC50 (50% inhibition of proliferation)
Excerpt: as §1

SHSY-5Y xenografts = assay: Inhibition of SHSY-5Y xenografts; conditions: in vivo
[1] = test system: K562 Leukemia chronic myelo; assay: CellTiter-Glo proliferation assay, K562; type: cell-based; conditions: Homo sapiens, 72 hr incubation, read-out: IC50 (50% inhibition of proliferation)
Excerpt: as §1

NCI-H69 Lung small cell = assay: CellTiter-Glo proliferation assay, NCI-H69; type: cell-based; conditions: Homo sapiens, 72 hr incubation, read-out: IC50 (50% inhibition of proliferation)
Excerpt: as §1

GXF-209 Stomach = assay: CellTiter-Glo proliferation assay, GXF-209; type: cell-based; conditions: Homo sapiens, 72 hr incubation, read-out: IC50 (50% inhibition of proliferation)
Excerpt: as §1

[2] = test system: HL-60 Leukemia promyelocytic; assay: CellTiter-Glo proliferation assay, HL-60; type: cell-based; conditions: Homo sapiens, 72 hr incubation, estimated from the data, no curve fit possible, read-out: IC50 (50% inhibition of proliferation)
Excerpt: as §1

PANC-1 Pancreas = assay: CellTiter-Glo proliferation assay, PANC-1; type: cell-based; conditions: Homo sapiens, 72 hr incubation, read-out: IC50 (50% inhibition of proliferation)
Excerpt: as §1

normal mouse brain cells = assay: Viability of normal mouse brain cells
HepG2 Hepatoma = assay: CellTiter-Glo proliferation assay, HepG2; type: cell-based; conditions: Homo sapiens, 72 hr incubation, read-out: IC50 (50% inhibition of proliferation)
Excerpt: as §1

[3] = test system: MOLT-4 Leukemia acute lympho; assay: CellTiter-Glo proliferation assay, MOLT-4; type: cell-based; conditions: Homo sapiens, 72 hr incubation, read-out: IC50 (50% inhibition of proliferation)
Excerpt: as §1

[4] = test system: medulloblastoma cell line DAOY; assay: Inhibition of growth of medulloblastoma cell line DAOY; type: cell-based
NCI-H522 Lung adenoca = assay: CellTiter-Glo proliferation assay, NCI-H522; type: cell-based; conditions: Homo sapiens, 72 hr incubation, read-out: IC50 (50% inhibition of proliferation)
Excerpt: as §1

CN(C)c1ccc(NC(=O)CCCCCNC(=O)c2ccccc2S)cc1 [Compound 206, 2-Mercapto-N-[5-(4-dimethylamino-3-yl-carbamoyl)pentyl]benzamide]
melting point: 108 to 110 °C

O=C(CCCCCNC(=O)c1ccccc1S)Nc1cccnc1 [Compound 205, 2-Mercapto-N-[5-(pyridin-3-ylcarbamoyl)pentyl]benzamide]
IC50 (HT-29 Colon): 47.6 µM | IC50 (NCI-H460 Lung large cell): > 100 µM | IC50 (DU-145 Prostate): 50.2 µM | activity against human cancer cell lines (human cancer cell lines): low uM range; also recorded: active against multiple human cancer cell lines at low micromolar concentrations | cancer types against which most active (human cancer cell lines): most active against lung adenocarcinoma, stomach cancer, pancreatic cancer, and breast cancer | IC50 (MDA-MB-231 Breast): 24.8 µM | IC50 (OVCAR-3 Ovary adenoca): 18.7 µM | IC50 (LNCAP Prostate): 6.2 µM | activity against the growth of SHSY-5Y xenografts (SHSY-5Y xenografts): shows activity | IC50 [1]: 58.3 µM | IC50 (NCI-H69 Lung small cell): 16.1 µM | IC50 (GXF-209 Stomach): 22 µM | IC50 [2]: ~60 µM | IC50 (PANC-1 Pancreas): 11.9 µM | viability of normal mouse brain cells compared to control (normal mouse brain cells): high viability | IC50 (HepG2 Hepatoma): 53.1 µM | IC50 [3]: 26.3 µM | activity against medulloblastoma cell line DAOY [4]: active | IC50 (NCI-H522 Lung adenoca): 1.8 µM
